{"source": "patent US9572829B2", "about": "“Treatment of ocular disorders” (Massachusetts Eye and Ear Infirmary, priority 2004, dated 2017)", "origin": "cited, not measured here", "design": "unit not given here", "details": "typical value, general statement"}
{"molecule": "C=Cc1c(C)c2cc3nc(c(CC(=O)N[C@@H](CC(=O)O)C(=O)O)c4[nH]c(cc5nc(cc1[nH]2)C(C)=C5CC)c(C)c4C(=O)O)[C@@H](CCC(=O)O)[C@@H]3C", "note": "[N-aspartyl chlorin e6]", "values": [{"measurement": "Time that photosensitizer persists in the target neovasculature", "value": "about twenty"}]}
{"molecule": "CC(=O)[O-].CC(=O)[O-].CCc1c(CC)c2cc3nc(cnc4cc(OCCOCCOCCOC)c(OCCOCCOCCOC)cc4ncc4nc(cc1[n-]2)C(CCCO)=C4C)C(C)=C3CCCO.O.[Lu+3]", "note": "[lutetium texaphyrin]", "values": [{"measurement": "Time that photosensitizer persists in the target neovasculature", "value": "about twenty"}]}
{"molecule": "benzoporphyrin derivative", "values": [{"measurement": "Time that photosensitizer persists in the target neovasculature", "value": "about fifty"}]}
